Measured values from patent US20240190872A1, “FABI INHIBITORS FOR GRAM-NEGATIVE PATHOGENS” (THE BOARD OF TRUSTEES OF THE UNIVERSITY OF ILLINOIS, priority 2021, published 2024).
≈ marks a conversion by molar mass, not a printed value.

Legend:
H. sapiens A549 = test: In-vitro cytotoxicity; format: cell-based
Plasma stability = format: in vitro ADME
Hepatocyte stability = format: in vitro ADME
CYP 3A4 = CYP 3A4 (Homo sapiens (Human), UniProt P08684); test: biochemical
[1] = female, BALB/c, mouse, in vivo, 100 mg/kg
A. baumannii AR-88 = test: Neutropenic mouse thigh infection; format: in vivo, female BALB/c mice
Procedure: FIG. 7. […] A) Neutropenic mouse thigh infection model initiated in female BALB/c mice with A. baumannii AR-88 (1.36×10^5 CFU per mouse intramuscular, left thigh) were treated with vehicle (5 mice) or fabimycin (10 mice) four times a day (75 mg/kg intravenously) and bacterial burden evaluated at 26 h post-infection. B) Neutropenic mouse thigh infection initiated in CD-1 mice with S. aureus USA300 LAC (2.3×10^6 CFU per mouse intramuscular in thigh) were treated with vehicle (8 mice) or FabI inhibitor (8 mice per group) 2 and 7 h post-infection (5 mg/kg retro-orbital IV), and the bacterial burden was evaluated 24 h post-infection.
(§1) With formulation, MTD, and pharmacokinetic data in hand, the efficacy of fabimycin was evaluated in murine infection models. To start, a comparative assessment was made of fabimycin and Debio-1452-NH3 in two murine neutropenic infection models using a dosing regimen that is at the MTD for Debio-1452-NH3 but below the MTD for fabimycin (three doses, intramuscular, at 50 mg/kg).
(§2) Chart 1. Summary of Fabimycin in vivo models.

in vivo = conditions: female, C57BL/6, mouse, in vivo
Procedure: Mouse MTD of Debio-1452-NH3. The protocol was approved by the IACUC at the University of Illinois at Urbana-Champaign (Protocol Number:16144). In these studies, 10- to 12-week-old female C57BL/6 mice purchased from Charles River were used. The maximum tolerate dose (MTD) of single compound was determined first. Debio-1452 amine analogues were formulated in 20% sulfobutyl ether β-cyclodextrin in sterile water. Debio-1452-NH3 (1), and compounds 2 and 3 were given by IP injection and mice were monitored for signs of toxicity for 2 weeks (single dose). For multiple dose, the compound was given by daily IP for 5 consecutive days and mice were monitored for signs of toxicity for 1 month. MTD was the highest dosage with acceptable toxicity (e.g. <20% weight loss). Single dose MTDs were initially determined. […] The MTD of Debio-1452-NH3 (1) was used to inform the dosing schedule used in subsequent efficacy studies.

E. coli AR-55 = test: Murine urinary tract infection (UTI) model; format: in vivo, C3H/HeJ mice; conditions: TID
Procedure: FIG. 4. In-vivo efficacy of fabimycin in a murine UTI. After inducing diuresis, infection initiated in C3H/HeJ mice (8 per arm, 1.38×10^9 CFU/mouse transurethral) with E. coli AR-55 and treated with fabimycin at varying concentrations three times daily with bacterial enumeration at 168 h post-infection. Percentage in parenthesis indicates the percentage of animals with bacterial counts below the limit of detection (LOD).
(§3) UTIs represent one of the biggest risks for healthy individuals in terms of exposure to antibiotic-resistant bacteria and many individuals contract one in their lifetime (roughly 1 in 2 women and 1 in 10 men); as such, these infections from Gram-negative pathogens, particularly those that are drug-resistant, remain a major clinical challenge. As E. coli is the causative agent in the great majority of UTIs fabimycin was evaluated in a murine UTI model with a challenging, extensively resistant strain of carbapenem resistant E. coli (fabimycin MIC=2 μg/mL). When dosed at 33.3 mg/kg, TID fabimycin was able to achieve 3.0, 2.8, 2.9, and 1.9 log10 reductions in bacterial load relative to the vehicle in the spleen, bladder, liver, and kidneys tissues, respectively (FIG. 4).
Chart 1. Summary of Fabimycin in vivo models. Log reductions are relative to the vehicle. • S. aureus • Neutropenic thigh infection w/S. aureus USA300 LAC • 5 mg/kg, r.o. • 26 h, 2.6 log reduction • A. baumannii • Neutropenic thigh infection w/A. baumannii AR-0299 • 50 mg/kg, intramuscular (2, 6, and 11 h post-infection) • 26 h, 2.3 log reduction • Acute lung infection w/A. baumannii AR-0299 • 50 mg/kg, intramuscular (QD) • 48 h, 3.9 log reduction • Neutropenic thigh infection w/A. baumannii AR-0088 • 75 mg/kg IV, QID • 26 h, 1.75 log reduction • E. coli • Urinary tract infection w/E. coli AR-0055 • 33.3 mg/kg IV, TID (100 mg/kg a day) • 168 h post-infection • Bladder—2.78 log reduction • Liver—2.85 log reduction • Spleen—3.04 log reduction • Kidneys—1.85 log reduction • Urine—2.32 log reduction

[2] = system: carbapenem resistant E. coli; test: MIC against infecting strain of the UTI model; format: cell-based; conditions: Escherichia coli; extensively resistant carbapenem resistant E. coli of UTI model
Procedure: as §3

A. baumannii AR-299 = test: Neutropenic mouse thigh infection; format: in vivo, CD-1 mice; conditions: 50 mg/kg, intramuscular (2, 6, and 11 h post-infection), 26 h
Procedure: as §1, §2

[3] = 33.3 mg/kg IV, 168 h post-infection

Sequence of CYP 3A4 (P08684 whole entry): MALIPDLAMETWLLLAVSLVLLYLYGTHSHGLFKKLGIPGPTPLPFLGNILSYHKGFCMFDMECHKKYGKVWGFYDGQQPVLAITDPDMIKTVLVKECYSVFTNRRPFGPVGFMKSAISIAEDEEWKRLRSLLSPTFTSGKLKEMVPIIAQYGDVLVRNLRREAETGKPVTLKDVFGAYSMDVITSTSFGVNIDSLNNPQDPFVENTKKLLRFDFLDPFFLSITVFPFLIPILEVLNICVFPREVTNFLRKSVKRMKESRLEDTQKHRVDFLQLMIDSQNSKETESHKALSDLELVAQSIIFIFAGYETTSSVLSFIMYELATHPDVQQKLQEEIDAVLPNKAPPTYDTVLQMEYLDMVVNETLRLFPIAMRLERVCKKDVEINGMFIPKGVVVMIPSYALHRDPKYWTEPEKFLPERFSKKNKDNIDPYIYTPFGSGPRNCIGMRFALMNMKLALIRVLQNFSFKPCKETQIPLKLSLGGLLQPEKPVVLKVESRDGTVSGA

Cc1c(CN(C)C(=O)/C=C/c2cnc3c(c2)CC[C@H](N)C(=O)N3)oc2ccccc12 [(S)-11, (S,E)-3-(7-amino-8-oxo-6,7,8,9-tetrahydro-5H-pyrido[2,3-b]azepin-3-yl)-N-methyl-N-((3-methylbenzofuran-2-yl)methyl)acrylamide]
inhibition at 30 µM (H. sapiens A549): -1.2 ± 3.5% | IC50 (H. sapiens A549; cytotoxicity): 114 ± 3 µM | stability in rat plasma (in words) (Plasma stability): excellent stability | Hepatocyte stability, Rat (Hepatocyte stability): 0.9 μL/min/million cells | IC50 (CYP 3A4): 7 µM | time concentrations stayed above the MIC for the infectious strain [1]: over 7 hours | log reduction relative to the vehicle (A. baumannii AR-88; 75 mg/kg IV, QID, 26 h): 1.75 log | reduction of bacterial burden (A. baumannii AR-88; NDM-1 containing A. baumannii, neutropenic thigh): ~2 log(CFU/thigh) | MTD at 5 d (in vivo): 200 mg/kg | log reduction relative to the vehicle, Bladder (E. coli AR-55; [3]): 2.78 log | log reduction relative to the vehicle, Kidneys (E. coli AR-55; [3]): 1.85 log | log reduction relative to the vehicle, Liver (E. coli AR-55; [3]): 2.85 log | log reduction relative to the vehicle, Spleen (E. coli AR-55; [3]): 3.04 log | log reduction relative to the vehicle, Urine (E. coli AR-55; [3]): 2.32 log | log10 reduction in bacterial load relative to the vehicle, bladder (E. coli AR-55; 33.3 mg/kg): 2.8 log10 | log10 reduction in bacterial load relative to the vehicle, kidneys (E. coli AR-55; 33.3 mg/kg): 1.9 log10 | log10 reduction in bacterial load relative to the vehicle, liver (E. coli AR-55; 33.3 mg/kg): 2.9 log10 | log10 reduction in bacterial load relative to the vehicle, spleen (E. coli AR-55; 33.3 mg/kg): 3.0 log10 | MIC [2]: 2 µg/mL (≈ 4.94 µM) | log reduction relative to the vehicle (A. baumannii AR-299): 2.3 log
